Reference: paper PMC8378262 (Journal of controlled release : official journal of the …, 2021)
“And” between values parts separate entries of the source, which are not always exact repeats. Identical values can stand only once. Like-named read-outs stand apart in the source and are kept apart here.

What was measured:
[1] = Pharmacokinetics in rat plasma after intravenous administration; type: in vivo, Sprague Dawley rats
ROCK-II = ROCK-II (Homo sapiens, UniProt O75116); assay: Cell-free Rho-associated kinase activity; type: biochemical
PAH-SMC = assay: Antiproliferative effects, Cell Counting Kit-8, PAH-SMC; type: cell-based, human
phospho-MYPT1 [2] = assay: Myosin phosphatase-targeting protein phosphorylation; type: cell-based, human; conditions: PAH-SMCs, 1.0 μM, 24 h
PAH-EC = assay: cells; type: cell-based; conditions: Homo sapiens, 24 h
PAH-ECs = assay: Bioreduction of FasPRO in cultured PAH-ECs; type: cell-based, human; conditions: 24 h incubation
[3] = biological target: T1, bactosomal human NADPH-CYP reductase (Homo sapiens, UniProt P16435); assay: Enzymatic reduction assay of FasPRO, LC-MS/MS; type: in vitro ADME
T1 sequence (P16435 1-677): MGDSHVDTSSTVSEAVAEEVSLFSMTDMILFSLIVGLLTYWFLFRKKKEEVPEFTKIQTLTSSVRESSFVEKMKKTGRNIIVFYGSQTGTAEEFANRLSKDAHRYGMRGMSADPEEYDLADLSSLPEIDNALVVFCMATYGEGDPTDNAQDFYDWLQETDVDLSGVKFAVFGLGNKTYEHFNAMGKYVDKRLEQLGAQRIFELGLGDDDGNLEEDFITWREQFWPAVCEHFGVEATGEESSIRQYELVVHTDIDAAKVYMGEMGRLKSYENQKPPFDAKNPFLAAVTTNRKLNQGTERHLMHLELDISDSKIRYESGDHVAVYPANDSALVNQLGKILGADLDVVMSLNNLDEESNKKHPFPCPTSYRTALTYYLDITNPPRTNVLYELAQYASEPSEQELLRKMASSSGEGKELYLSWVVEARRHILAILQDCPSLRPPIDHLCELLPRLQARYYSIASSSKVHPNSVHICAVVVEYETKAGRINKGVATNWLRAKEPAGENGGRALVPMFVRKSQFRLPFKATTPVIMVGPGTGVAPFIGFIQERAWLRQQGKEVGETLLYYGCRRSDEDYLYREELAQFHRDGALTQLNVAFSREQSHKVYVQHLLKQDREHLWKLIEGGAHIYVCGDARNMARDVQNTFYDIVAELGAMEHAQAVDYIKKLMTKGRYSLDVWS

PAH-SMCs = assay: Bioreduction of FasPRO in cultured PAH-SMCs; type: cell-based, human
cGMP [4] = assay: Intracellular cGMP; type: cell-based, human; conditions: PAH-ECs
phospho-MYPT1 [5] = assay: Myosin phosphatase-targeting protein phosphorylation; type: cell-based, human; conditions: PAH-ECs, 1.0 μM
N-SMC = assay: Antiproliferative effects, Cell Counting Kit-8, N-SMC; type: cell-based, human
cGMP [6] = assay: Intracellular cGMP; type: cell-based, human; conditions: for intracellular level of cGMP: PAH-SMCs, 0.1–0.001 μM
[7] = read-out: PAH-EC (IC50) Hypoxia
[8] = read-out: PAH-EC (IC50) Normoxia
[9] = male, Sprague-Dawley, rat, plasma, iv, 3 mg/kg
[10] = Homo sapiens, 24 h, read-out: N-SMC (IC50) Normoxia
[11] = Homo sapiens, 24 h, read-out: PAH-SMC (IC50) Normoxia, normoxia, 24 h treatment

Sequence of ROCK-II (O75116 whole entry, species assumed): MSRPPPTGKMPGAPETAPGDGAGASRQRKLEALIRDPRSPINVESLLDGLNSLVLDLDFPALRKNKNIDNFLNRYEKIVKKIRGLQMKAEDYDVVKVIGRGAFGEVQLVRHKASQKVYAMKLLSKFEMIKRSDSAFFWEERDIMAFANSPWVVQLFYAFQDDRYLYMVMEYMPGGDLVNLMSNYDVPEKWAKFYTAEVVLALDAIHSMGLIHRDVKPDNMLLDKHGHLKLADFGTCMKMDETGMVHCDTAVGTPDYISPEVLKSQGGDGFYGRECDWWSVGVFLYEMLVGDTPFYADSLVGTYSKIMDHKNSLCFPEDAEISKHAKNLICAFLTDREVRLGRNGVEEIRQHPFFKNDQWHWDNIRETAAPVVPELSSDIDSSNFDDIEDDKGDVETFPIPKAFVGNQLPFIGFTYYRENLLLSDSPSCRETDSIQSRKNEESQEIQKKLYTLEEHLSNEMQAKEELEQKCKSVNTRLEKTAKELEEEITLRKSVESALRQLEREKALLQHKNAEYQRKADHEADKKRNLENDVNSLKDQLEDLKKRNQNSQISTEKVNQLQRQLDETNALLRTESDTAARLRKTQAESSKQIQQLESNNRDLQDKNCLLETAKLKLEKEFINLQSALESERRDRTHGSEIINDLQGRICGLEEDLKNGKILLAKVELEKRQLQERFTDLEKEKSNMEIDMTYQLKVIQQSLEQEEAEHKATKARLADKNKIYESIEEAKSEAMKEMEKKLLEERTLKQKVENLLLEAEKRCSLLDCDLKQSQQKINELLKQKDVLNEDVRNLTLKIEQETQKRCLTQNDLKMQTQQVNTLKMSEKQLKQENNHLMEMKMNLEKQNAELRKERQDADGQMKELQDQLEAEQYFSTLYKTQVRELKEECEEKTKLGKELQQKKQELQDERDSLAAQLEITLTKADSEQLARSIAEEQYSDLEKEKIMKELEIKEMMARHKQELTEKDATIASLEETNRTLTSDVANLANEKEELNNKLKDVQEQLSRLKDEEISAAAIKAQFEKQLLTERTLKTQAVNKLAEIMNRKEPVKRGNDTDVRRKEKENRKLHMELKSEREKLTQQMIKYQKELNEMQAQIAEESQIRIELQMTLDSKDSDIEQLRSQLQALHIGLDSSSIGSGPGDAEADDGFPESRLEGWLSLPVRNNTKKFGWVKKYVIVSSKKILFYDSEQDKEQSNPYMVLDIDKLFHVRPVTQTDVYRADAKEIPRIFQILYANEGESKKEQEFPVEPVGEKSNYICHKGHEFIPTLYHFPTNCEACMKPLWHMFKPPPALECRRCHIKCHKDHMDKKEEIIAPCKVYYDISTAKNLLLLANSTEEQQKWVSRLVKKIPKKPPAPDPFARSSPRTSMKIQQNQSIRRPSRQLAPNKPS

O=c1[nH]ccc2c(S(=O)(=O)N3CCCNCC3)cccc12 [FasOH, reference compound]
maximum plasma concentration (Cmax) of FasOH as share of that of the parent drug ([1]; rats given intravenous fasudil 3 mg/kg): 37~52%
inhibition of the kinase activity of ROCK-II (comparison in words) (ROCK-II; 1.0 mU ROCK-II, 10 μM ATP): equal potency
IC50 (PAH-SMC; Homo sapiens, 24 h, read-out: PAH-SMC (IC50) Hypoxia): 10.3 ± 2.6 µM
IC50 (PAH-SMC; Homo sapiens, 24 h, read-out: PAH-SMC (IC50) Normoxia): 6.9 µM

O=[N+]([O-])c1ccc(COc2nccc3c(S(=O)(=O)N4CCCNCC4)cccc23)cc1 [FasPRO, 5-((1,4-diazepan-1-yl)sulfonyl)-1-((4-nitrobenzyl)oxy)isoquinoline]
hypoxia-driven phosphorylation of MYPT1 (phospho-MYPT1 [2]): reversed the process
phospho-MYPT-1 level (phospho-MYPT1 [2]; normoxia): did not cause any changes
IC50 (PAH-EC; [7]): 25.4 ± 4.8 µM
IC50 (PAH-EC; [8]): 2720 ± 50.9 µM
content of FasPRO in cells (PAH-ECs; hypoxia, versus normoxia): decreased
fragmentation of FasPRO in cells (PAH-ECs; normoxia): did not undergo significant fragmentation
prodrug converted into FasOH or fasudil ([3]; hypoxia (0.1% O2), after 24 h of reaction): More than 60%
reduction of FasPRO by the reductase ([3]; normoxia, any of the time points): did not occur
activation of FasPRO (PAH-SMCs; 0.1% O2): activated
activation of FasPRO (PAH-SMCs; 1% and 10% O2): not at 1% and 10% O2
fragments of FasPRO after bioreduction in cell lysate (PAH-SMCs; 12 h, hypoxia): FasOH (major fragment) or fasudil (minor fragment)
content of FasPRO in cells (PAH-SMCs; hypoxia, 24 h incubation, versus normoxia): decreased
fragmentation of FasPRO in cells (PAH-SMCs; normoxia, 24 h incubation): did not undergo significant fragmentation
terminal half-life of FasPRO relative to that of fasudil ([1]; Sprague-Dawley rats, intravenous, 3 mg/kg): 36 fold and ~ 36 fold
AUC(0-inf) [1, 9]: 951 ± 137 ng·h/mL
C0 [1, 9]: 471 ± 122 ng/mL
Vd [1, 9]: 10.1 ± 4 L/kg
clearance [1, 9]: 18.3 mL/min/kg
half-life ([1]; male, Sprague-Dawley, rat, plasma, iv, 3 mg/kg, t1/2, Sprague-Dawley rats): > 7 h
fasudil in the blood of FasPRO-treated rats ([1]; remaining two of four rats, FasPRO iv 3 mg/kg): not detectable
intracellular level of cGMP (cGMP [4]; hypoxia): dose-dependently increased
intracellular level of cGMP (cGMP [4]; normoxia): did not improve cGMP secretion
hypoxia-driven phosphorylation of MYPT1 (phospho-MYPT1 [5]): reversed the process
phospho-MYPT-1 level (phospho-MYPT1 [5]; normoxia): did not cause any changes
IC50 (N-SMC; Homo sapiens, 24 h, read-out: N-SMC (IC50) Hypoxia): 1.04 ± 0.1 µM
IC50 (N-SMC; [10]): 248 ± 28.9 µM
reduction in ROCK-II kinase activity on addition of the 4-nitrobenzyl group to the hydroxyl group of FasOH (ROCK-II; relative to FasOH): 15 fold
IC50 (PAH-SMC; [11]): 53.5 µM
concentrations at which an antiproliferative effect was observed (PAH-SMC; normoxia, cells not given): > 100 µM
intracellular level of cGMP (cGMP [6]; hypoxia): dose-dependently increased
intracellular level of cGMP (cGMP [6]; normoxia): did not improve cGMP secretion

O=S(=O)(c1cccc2cnccc12)N1CCCNCC1 [Fasudil, reference compound]
hypoxia-driven phosphorylation of MYPT1 (phospho-MYPT1 [2]): reversed the process
IC50 (PAH-EC; [7]): 34.1 ± 5.9 µM
IC50 (PAH-EC; [8]): 16 ± 1.2 µM
AUC(0-inf) [1, 9]: 363 ± 54.1 ng·h/mL
C0 [1, 9]: 1360 ± 368 ng/mL
Vd [1, 9]: 0.9 ± 0.2 L/kg
clearance [1, 9]: 46.7 mL/min/kg
intracellular level of cGMP (cGMP [4]; hypoxia): dose-dependently increased
intracellular level of cGMP (cGMP [4]; normoxia): dose-dependently increased
hypoxia-driven phosphorylation of MYPT1 (phospho-MYPT1 [5]): reversed the process
IC50 (N-SMC; [10]): 2.8 ± 0.6 µM
IC50 (N-SMC; read-out: N-SMC (IC50) Hypoxia, hypoxia (0.1% O2), 24 h treatment): 1.68 ± 0.5 µM
IC50 (PAH-SMC; [11]): 4.9 µM
IC50 (PAH-SMC; read-out: PAH-SMC (IC50) Normoxia, normoxia, 24 h treatment): 4.95 ± 1.3 µM
intracellular level of cGMP (cGMP [6]; hypoxia): dose-dependently increased
intracellular level of cGMP (cGMP [6]; normoxia): dose-dependently increased
increase in cGMP levels in PAH-SMCs compared to PAH-ECs (cGMP [6]; fasudil preincubation): 5 fold
